Measured values as given in ChEMBL document CHEMBL1201862, “PubChem BioAssay data set” (2004).
Activity calls are given as the source filed them.

What was measured:
[1] = biological target: T1, Rac GTPase-activating protein 1 (Homo sapiens, UniProt Q9H0H5); test: blockers of MgcRacGAP-driven Rac1 GTP hydrolysis – biochemical, ADP Hunter fluorescence, primary and confirmatory, confirmation (AID 624330); assay type: functional
T1 sequence (Q9H0H5 whole entry): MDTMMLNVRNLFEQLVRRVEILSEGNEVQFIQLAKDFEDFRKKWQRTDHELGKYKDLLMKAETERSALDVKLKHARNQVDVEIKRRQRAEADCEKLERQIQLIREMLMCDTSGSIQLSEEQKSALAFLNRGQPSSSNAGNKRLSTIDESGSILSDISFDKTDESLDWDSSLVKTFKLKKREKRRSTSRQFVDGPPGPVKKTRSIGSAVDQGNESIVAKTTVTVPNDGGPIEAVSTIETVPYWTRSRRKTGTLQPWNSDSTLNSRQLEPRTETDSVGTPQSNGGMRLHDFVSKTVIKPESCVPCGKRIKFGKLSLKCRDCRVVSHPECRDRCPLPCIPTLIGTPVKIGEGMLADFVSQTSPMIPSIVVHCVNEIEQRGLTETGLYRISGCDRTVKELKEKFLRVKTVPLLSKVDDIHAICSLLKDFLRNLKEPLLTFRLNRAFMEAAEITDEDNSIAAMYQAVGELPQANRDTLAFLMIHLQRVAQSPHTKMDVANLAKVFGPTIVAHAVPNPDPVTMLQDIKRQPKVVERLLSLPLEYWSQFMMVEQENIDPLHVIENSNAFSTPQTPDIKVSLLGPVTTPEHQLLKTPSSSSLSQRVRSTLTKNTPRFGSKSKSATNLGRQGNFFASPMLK

[2] = Luminescence Cell-Based Dose Retest to Confirm Inhibitors of Cancer Stem Cells. [Related pubchem assays (depositor defined):AID2717, AID2721]; assay type: functional; conditions: Homo sapiens
Cytochrome P450 3A4 = Cytochrome P450 3A4 (Homo sapiens, UniProt P08684);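 further: CYP3A4 tested as one member of a cytochrome P450 panel screen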
[3] = Trypanosoma cruzi growth suppression in host cells – NIH3T3 host cells, beta-gal luminescence, confirmation (AID 2044); assay type: functional, cell-based;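 further: intracellular parasites grown in NIH/3T3 mouse fibroblasts as host cells; luminescent beta-galactosidase reporter signal from transgenic T. cruzi replicating inside host cells; inhibitors lower the luminescence signal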
[4] = NIH3T3 cell viability loss – ATP luminescence, mouse fibroblasts, counter-screen, dose response (AID 2010); assay type: functional, cell-based;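 further: cells exposed to compound for about 90 hours before reading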
H4 = test: Luminescence Cell-Based Dose Response HTS to Identify Activators of 5'UTR Stem-Loop Driven Prion Protein mRNA Translation in H4 Neuroglioblastoma Cells. [Related pubchem assays: 1829 (Project Summary), 1814 (Primary HTS)]; assay type: functional; conditions: Homo sapiens
Cytochrome P450 2C19 = Cytochrome P450 2C19 (Homo sapiens, UniProt P33261); test: Cytochrome panel assay with activity outcomes. Panel member name: p450-cyp2c19 Compounds with AC50 equal or less than 10 uM are considered active; assay type: functional
Protein skinhead-1 = biological target: T2, Protein skinhead-1 (Caenorhabditis elegans, UniProt P34707); assay type: functional
T2 sequence (P34707 whole entry): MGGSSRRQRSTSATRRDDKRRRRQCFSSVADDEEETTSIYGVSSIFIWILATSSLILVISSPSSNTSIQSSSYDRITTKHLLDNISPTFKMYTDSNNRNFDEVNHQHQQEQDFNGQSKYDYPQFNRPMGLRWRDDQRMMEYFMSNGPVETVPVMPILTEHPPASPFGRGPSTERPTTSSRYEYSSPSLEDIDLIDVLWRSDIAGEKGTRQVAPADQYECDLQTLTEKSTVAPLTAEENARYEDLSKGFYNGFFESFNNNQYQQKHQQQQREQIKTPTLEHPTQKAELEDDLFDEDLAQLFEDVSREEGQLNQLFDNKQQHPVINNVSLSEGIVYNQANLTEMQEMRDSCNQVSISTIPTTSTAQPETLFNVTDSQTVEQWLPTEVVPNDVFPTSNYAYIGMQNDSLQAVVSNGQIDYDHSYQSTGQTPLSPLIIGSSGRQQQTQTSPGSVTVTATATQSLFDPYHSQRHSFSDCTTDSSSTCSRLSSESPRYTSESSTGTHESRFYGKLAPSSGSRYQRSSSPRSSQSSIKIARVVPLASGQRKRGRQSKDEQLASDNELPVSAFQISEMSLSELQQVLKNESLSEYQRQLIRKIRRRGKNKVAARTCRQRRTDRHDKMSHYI

Cytochrome P450 3A4, sequence (P08684 whole entry): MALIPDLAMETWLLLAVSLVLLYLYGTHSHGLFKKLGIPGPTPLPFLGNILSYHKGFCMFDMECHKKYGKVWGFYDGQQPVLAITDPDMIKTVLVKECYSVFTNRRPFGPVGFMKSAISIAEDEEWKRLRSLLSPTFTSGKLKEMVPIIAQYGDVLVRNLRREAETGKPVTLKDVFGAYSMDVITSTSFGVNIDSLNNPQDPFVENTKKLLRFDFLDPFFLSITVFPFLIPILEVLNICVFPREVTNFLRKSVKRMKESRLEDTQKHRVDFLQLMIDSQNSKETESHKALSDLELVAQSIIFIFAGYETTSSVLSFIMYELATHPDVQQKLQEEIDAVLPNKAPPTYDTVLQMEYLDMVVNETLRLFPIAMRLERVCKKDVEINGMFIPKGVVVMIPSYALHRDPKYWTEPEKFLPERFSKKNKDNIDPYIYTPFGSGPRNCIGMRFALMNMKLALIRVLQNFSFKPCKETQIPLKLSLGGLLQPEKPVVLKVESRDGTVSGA
Cytochrome P450 2C19, sequence (P33261 whole entry): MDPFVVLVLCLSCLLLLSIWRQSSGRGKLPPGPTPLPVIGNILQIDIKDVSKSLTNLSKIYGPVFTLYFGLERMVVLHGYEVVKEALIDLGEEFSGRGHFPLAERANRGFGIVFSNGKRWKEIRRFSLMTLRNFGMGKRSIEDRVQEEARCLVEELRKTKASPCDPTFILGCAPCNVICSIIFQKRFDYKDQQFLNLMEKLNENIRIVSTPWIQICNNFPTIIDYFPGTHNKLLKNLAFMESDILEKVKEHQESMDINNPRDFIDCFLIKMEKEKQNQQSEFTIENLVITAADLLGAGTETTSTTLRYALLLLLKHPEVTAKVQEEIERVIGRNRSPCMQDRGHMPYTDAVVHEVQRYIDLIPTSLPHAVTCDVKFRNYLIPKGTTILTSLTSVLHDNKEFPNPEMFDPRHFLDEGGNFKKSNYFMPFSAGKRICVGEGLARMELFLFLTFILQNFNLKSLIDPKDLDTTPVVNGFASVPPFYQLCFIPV

Oc1ccc(/C=C/c2nc3ccccc3nc2O)cc1
IC50 [1]: 31.5 µM (active)

Cc1cccc(-c2nc(C#N)c(NC3CCCCC3)o2)c1
AC50 [2]: 2.45 µM (active)

CC[C@@H]1OC(=O)[C@H](C)[C@H](O[C@@H]2C[C@](C)(OC)[C@H](O)[C@H](C)O2)[C@H](C)[C@H](O[C@@H]2O[C@@H](C)C[C@@H](N(C)C)[C@@H]2O)[C@](C)(O)C[C@H](C)C(=O)[C@H](C)[C@H](O)[C@]1(C)O
AC50 (Cytochrome P450 3A4): 12.6 µM (inconclusive)

COc1ccc(CCNC(=O)CN(c2ccccc2OC)S(=O)(=O)c2ccc(C)cc2)cc1
EC50 [3]: 4.73 µM (active)
EC50 [4]: 19.3 µM (active)

Cc1ccc(C)c(S(=O)(=O)N2CCN(C(=O)CCCc3c[nH]c4ccccc34)CC2)c1
EC50 [3]: 4.01 µM (active)
EC50 [4]: > 60 µM (not active)

CCCn1c(C)cc(C(=O)COc2ncnc3sccc23)c1C
EC50 (H4): > 120 µM (not active)

CCOC(=O)C1C(=O)C=C(c2ccc(NS(C)(=O)=O)cc2)CC1c1ccco1 (stereo not drawn)
AC50 (Cytochrome P450 3A4): 25.1 µM (inconclusive)

c1ccc(OCCCN2CCCC2)cc1
IC50 [1]: 159 µM (active)

CO[C@@]12C[C@@H](COC(=O)c3cncc(Br)c3)CN(C)[C@H]1Cc1cn(C)c3cccc2c13
AC50 (Cytochrome P450 2C19; read-out: AC50): 7.94 µM (inconclusive)

COc1ccc(/C=C2\SC(=S)N(CCC(=O)N(CCO)Cc3ccccc3)C2=O)cc1OC
EC50 [3]: 3.32 µM (active)
EC50 [4]: > 60 µM (not active)

C=C1C/C(=C\C)C(=O)O[C@@H]2CCN3CC=C(COC(=O)[C@@]1(C)O)[C@H]23
AC50 (Cytochrome P450 3A4): 12.6 µM (inconclusive)
AC50 (Cytochrome P450 2C19): inconclusive

CC(C)c1ccc(/C=C/C(=O)NC2=NCCS2)cc1
AC50 [2]: 1.99 µM (active)

CCCSc1nc2sc3c(c2c(=O)n1-c1ccc(OC)cc1)CCN(C)C3
EC50 [3]: 0.12 µM (active)
EC50 [4]: > 30 µM (not active)

COCCNC(=O)C1CCN(S(=O)(=O)N2CCC3(CC2)OCCO3)CC1
AC50 (Cytochrome P450 2C19; read-out: AC50): 15.8 µM (inconclusive)

O=[N+]([O-])c1ccc(OCc2cnc(Cl)s2)cc1
IC50 (Protein skinhead-1): 50.3 µM (inactive)

O=C(CNCCO)N1CCc2ccccc21
AC50 (Cytochrome P450 3A4): 1.41 µM (inconclusive)

Cc1c(-c2ccccc2)sc(N)c1C(=O)N1CCOCC1
IC50 [1]: 41.5 µM (active)

COc1cc(OC)cc(C(=O)N2CCN(Cc3ccc4c(c3)OCO4)CC2)c1
IC50 [1]: 188 µM (active)

COc1cccc(Nc2ncc3nc(-c4cc(F)cc(F)c4)c(=O)n(C[C@H]4CCCO4)c3n2)c1
AC50 (Cytochrome P450 3A4): 6.31 µM (inconclusive)

O=C(CN1CCN(S(=O)(=O)c2ccc(Br)cc2)CC1)Nc1ccccc1C(=O)c1ccccc1
EC50 [3]: 1.08 µM (active)
EC50 [4]: > 60 µM (not active)

Cc1cccc(NC(=O)Nc2ccc3c(c2)OCO3)n1
EC50 (H4): 9.72 µM (active)

CCCCc1ccc(NC(=O)CSc2nc(=O)n(CCN(CC)CC)c3c2CCC3)cc1
AC50 [2]: 11.2 µM (active)

Nc1ccc2[nH]cc(CCC(=O)O)c2c1
AC50 (Cytochrome P450 2C19): inconclusive

CC(=O)NCCNc1ccnc(-c2ccccc2C)n1
AC50 (Cytochrome P450 3A4): 20 µM (inconclusive)

Cc1ccc2cc3cc(C(=O)N4CC(C)CC(C)C4)oc3nc2c1 (stereo not drawn)
IC50 (Protein skinhead-1): > 100 µM (inactive)

COc1cc(CCN2C(=O)c3cccc4cccc(c34)C2=O)c(S(=O)(=O)N2CCCCCC2)cc1OC
EC50 [3]: 1.9 µM (active)
EC50 [4]: > 30 µM (not active)
